This is an account of results in US20260055118A1, “VISIBLE LIGHT SENSITIVE PHOTOREMOVABLE PROTECTING GROUPS, PREPARATION PROCESS THEREOF, PHOTOACTIVATABLE CONJUGATES COMPRISING THEM AND USES THEREOF” (HUN-REN TERMÉSZETTUDOMÁNYI KUTATÓKÖZPONT, priority 2022, published 2026).

Assay type in all cases: physicochemical
Data set [1] in a line: Uncaging experiments, LED irradiation followed by HPLC-UV-MS. How it is done: (§1) The uncaging experiments were performed using green (4 W input power, λmax=549 nm half-width: 16 nm, output power: 72 mW), orange (4 W input power, λmax=605 nm half-width: 10 nm, output power: 140 mW) and red (4 W input power, λmax=658 nm half-width: 10 nm, output power: 210 mW) LEDs as light source. Sample solutions were prepared, each containing 1 ml of solvent (90% v/v water-MeCN or 90% PBS-MeCN or 100% methanol for the photochemical quantum yield determination) and 0.1 mM or 0.05 mM concentration of the photoactivatable conjugates. The samples were irradiated for a given time using continuous water cooling for the light source. Then, the samples were transferred to the HPLC-UV-MS system and the chromatograms were recorded. The traces at 195 nm, 254 nm or 369 nm (dependent on the cargo moieties) and at the absorption maxima of the photoremovable protecting groups (530 nm, 570 nm or 640 nm) were compared and the corresponding peaks were integrated and compared to reference calibration sets. The possible photoproducts were identified by their corresponding m/z value and also from the UV/VIS spectra from the DAD-equipped instrument. For the dark stability experiments, the HPLC sample solutions were kept in the dark and chromatograms were recorded multiple times.
The photouncaging was evaluated by HPLC-MS using green (4 W input power, λmax=549 nm half-width: 16 nm, output power: 72 mW), orange (4 W input power, λmax=605 nm half-width: 10 nm, output power: 140 mW) and red (4 W input power, λmax=658 nm half-width: 10 nm, for Q=CMe2 output power: 210 mW) LED irradiation. For all compounds the experiments were performed in 90% water/MeCN mixtures as well as in 90% PBS/MeCN (0.1 mM concentration). In all cases, the irradiation led to the release of the model active agents with significant differences based on the photoremovable protecting group, cargo unit and the connecting chemical moiety as well as on the water content of the uncaging medium. Comparing the green light absorbing target conjugates, irradiation of 39 led to the release of 54% phenylacetic acid in 60 s (FIG. 6b), while 180 s (for 50%) was required for the same result in case of 41. Approximately 65% of phenylacetic acid was released after 180 s of irradiation with orange light from model target conjugate 41 (FIG. 6a). The current state of the art BODIPY derivative (for the structure, see the next section),^20,21 released only 12% phenylacetic acid after irradiation for 1800 s. Contrary to the general expectations that increasing the wavelength diminishes photolysis rates, the uncaging of the redshifted Q=CMe2 derivative 43 was also very effective, reaching >70% release of phenylacetic acid in 120 s after red light irradiation (FIG. 6c). The high efficiency of 43 as a red light-activatable photoremovable protecting group was also compared to a π-extended BODIPY derivative (substrate 7 in REF^21, using methanol as the solvent in a concentration of 0.1 mM), the current state of the art in this region of visible light.
Importantly, except in the case of compounds wherein the connecting chemical moiety was a carbonate moiety (i.e., compound 51, FIG. 6f), the target conjugates were stable in water as well as in PBS for 24 hours in the dark. The stability and uncaging rates of several leaving groups was also assessed. Comparing the most important functional groups (carboxylic acid, amine, phenol, alcohol) in potential active agents connected via the typical linkages in the target conjugates, the carbonate bond was the most labile (compound 51, >70% decomposition in 30 s with red light at 50% power) although the long-term dark stability was poor. None of the other model active agents were released in significant quantities, however, after 24-28 hours in the dark (for dark stability data see FIGS. 6a-6h, right side).
Using HPLC-MS, not only the appearance of the released model active agents could be monitored but also the products of photolysis were detectable. […]

A short description of data set [2]: Uncaging quantum yield determination relative to BODIPY reference. As to conditions: for ε × Φu, uncaging cross-section / quantum efficiency: at the wavelength in parentheses beside each value (538-660 nm); for Φu, uncaging quantum yield: calculated from active agent release; for Φu, uncaging quantum yield / Φdeg, degradation quantum yield: green light irradiation; for Φdeg, degradation quantum yield: calculated from the disappearance of the target conjugate. How it is done:
The relative photochemical quantum yields of the uncaging reactions together with the degradation quantum yields were determined from the results of the quantitative HPLC-UV experiments. In all cases, green light irradiation was used since all target conjugates absorbed in this range as well as the reference BODIPY. The photochemical quantum yields were determined using the following equation:
[formula] • where • Φu is the photochemical quantum yield of the sample • Φu,ref is the photochemical quantum yield of the reference • k is the obtained reaction rate constant of the photoreaction of the sample • kref is the obtained reaction rate constant of the photoreaction of the reference • c is the concentration of the sample • cref is the concentration of the reference • V is the volume of the sample • Vref is the volume of the reference • a is the absorption correction factor of the sample • aref is the absorption correction factor of the reference
The absorption correction factors (a) were determined from the molar absorption coefficients and the green LED emission data obtained by the fluorimeter. […] In other words, the transmittance at each wavelength together with the emission data of the light source can be used to calculate the percentage of absorbed photons according to the following equation:
[formula] • where • T(λ) is the transmittance at each wavelength (determined from the molar absorption coefficients) • F(λ) is the LED emission at each wavelength • λmin, λmax is the LED emission range.
The rate constants of the photoreactions were determined by considering the reactions monoexponential with an initial linear phase (up to 10-20% degradation). First, the concentration vs. HPLC-UV peak were determined for each cargo moieties. […] The rate constants were determined for both the reference (with known Φu) and the sample. For reference, a commonly known BODIPY derivative was used with a similar phenylacetic acid-derived cargo unit (substrate 7 from REF^40), Φu=0.15%:
The calculated photochemical quantum yields together with uncaging cross-sections or quantum efficiencies (product of the molar absorption coefficient at a given wavelength, shown in parentheses and the photochemical quantum yield) are shown in Table 2. In the table, Φu is the photochemical quantum yield of the release; Φdeg is the photochemical quantum yield of degradation; ε×Φu is the uncaging cross-section or quantum efficiency of the release at a given wavelength in parentheses.

Data set [3] is described as follows: Spectroscopic properties of the target conjugates in PBS. As to conditions: for ε (molar absorption coefficient): at the absorption maximum. How it is done: All starting materials were obtained from commercial suppliers and used without further purification. Analytical thin-layer chromatography (TLC) was performed on silica gel 60 F254 precoated aluminum TLC plates from Merck. Flash column chromatography was performed on Teledyne Isco CombiFlash® Rf+ automated flash chromatographer with silica gel (25-40 μm) from Zeochem. NMR spectra were recorded on a Varian Inova 500 MHz spectrometer. Chemical shifts (δ) are given in parts per million (ppm) using solvent signals or TMS as the reference. Coupling constants (J) are reported in Hertz (Hz). Analytical RP-HPLC-UV/Vis-MS measurements were employed using a Shimadzu LCMS-2020 instrument applying a Gemini C18 column (100×2.00 mm I.D.) in which the stationary phase is […] with a pore size of 110 Å. The chromatograms were detected by a UV-Vis diode array (190-800 nm) and an ESI-MS detector. The following linear gradient elution profile was applied, 0 min 0% B; 6.5 min 100% B; 7 min 0% B; 8 min. 0% B) with eluent A (2% HCOOH, 5% MeCN and 93% water) and B (2% HCOOH, 80% MeCN and 18% water) at a flow rate of 1.0 mL min-1 at 30° C. The samples were dissolved in MeCN—water mixtures. Spectroscopic measurements were performed on a Jasco FP 8300 spectrofluorometer. Quartz cuvettes with path length of 1 cm were used.
The spectroscopic properties of the target conjugates were determined in PBS. […] Compounds with Q=O have absorption bands in the green-yellow region while Q=CMe2 derivatives absorb in the red (up to 700 nm). All of the compounds have moderate to high absorption coefficients and significant fluorescence. The spectroscopic details can be found in Table 1. In the table, λmax means absorption maximum; λem means fluorescence emission maximum; s means molar absorption coefficient (at the absorption maximum).

A short description of data set [4]: Dark stability experiments (HPLC). As to conditions: water and PBS, 24 hours in the dark. How it is done: as §1, with “The traces at 195 nm, 254 nm or 369 nm (dependent on the cargo moieties) and at the absorption maxima of the photoremovable protecting groups (530 nm, 570 nm or 640 nm) were compared and the corresponding peaks were integrated and compared to reference calibration sets. The possible photoproducts were identified by their corresponding m/z value and also from the UV/VIS spectra from the DAD-equipped instrument.” left out
Importantly, except in the case of compounds wherein the connecting chemical moiety was a carbonate moiety (i.e., compound 51, FIG. 6f), the target conjugates were stable in water as well as in PBS for 24 hours in the dark. The stability and uncaging rates of several leaving groups was also assessed. […] None of the other model active agents were released in significant quantities, however, after 24-28 hours in the dark (for dark stability data see FIGS. 6a-6h, right side).

As for `CC(OC(=O)Cc1ccccc1)C1=C2C=CC(=[N+]3CCCC3)C=C2C(C)(C)c2cc(N3CCCC3)ccc21.[I-]` (stereo not shown) [Compound 43, 1-(9,9-dimethyl-10-(1-(2-phenylacetoxy)ethyl)-7-(pyrrolidin-1-yl)anthracen-2 (9H)-ylidene)pyrrolidin-1-ium iodide], the “increase in the photolysis rate versus π-extended BODIPY derivative” value in data set [1] (methanol, 0.1 mM, red light) is recorded as “approximately 5 fold”. In data set [1] (red light, 120 s), the “release of phenylacetic acid” value is greater than 70%. In data set [2], the “ε × Φu, uncaging cross-section / quantum efficiency” value was determined as 1400 M⁻¹ cm⁻¹; the “Φu, uncaging quantum yield” value is reported as 1.7%; the “Φdeg, degradation quantum yield” value was 2.2%. In data set [3], the “λem (fluorescence emission maximum)” value turned out to be 674 nm, the “λmax (absorption maximum)” value is 641 nm and the “ε (molar absorption coefficient)” value is 86 000 M^−1cm^−1.
As to `CC(OC(=O)Cc1ccccc1)c1c2ccc(=[N+]3CCCC3)cc-2oc2cc(N3CCCC3)ccc12.[I-]` (stereo not shown) [Compound 41, 1-(9-(1-(2-phenylacetoxy)ethyl)-6-(pyrrolidin-1-yl)-3H-xanthen-3-ylidene)pyrrolidin-1-ium iodide], the “irradiation time required for 50% release of phenylacetic acid” value in data set [1] (green light) turned out to be 180 s. The “release of phenylacetic acid” value in data set [1] (orange light, 180 s) is reported as “Approximately 65%”. In data set [2], the “ε × Φu, uncaging cross-section / quantum efficiency” value came out at 1020 M⁻¹ cm⁻¹; the “Φu, uncaging quantum yield” value was 1.5%; the “Φdeg, degradation quantum yield” value is given as 1.9%. Moreover, in data set [3], the “λem (fluorescence emission maximum)” value was found to be 592 nm, the “λmax (absorption maximum)” value was determined as 570 nm and the “ε (molar absorption coefficient)” value is 70 000 M^−1cm^−1.
With `CC(OC(=O)Cc1ccccc1)c1c2ccc(=O)cc-2oc2cc(N3CCCC3)ccc12` (stereo not shown) [Compound 39, 1-(3-oxo-6-(pyrrolidin-1-yl)-3H-xanthen-9-yl)ethyl 2-phenylacetate], the “release of phenylacetic acid” value in data set [1] (green light, 60 s) turned out to be 54%. In data set [2], the “ε × Φu, uncaging cross-section / quantum efficiency” value was determined as 1070 M⁻¹ cm⁻¹; the “Φu, uncaging quantum yield” value is 4.7%; the “Φdeg, degradation quantum yield” value is recorded as 6.2%. For the same compound, in data set [3], the “λem (fluorescence emission maximum)” value is 564 nm, the “λmax (absorption maximum)” value is 538 nm and the “ε (molar absorption coefficient)” value was 22 700 M^−1cm^−1.
In turn, `CC(OC(=O)Oc1ccccc1)C1=C2C=CC(=[N+]3CCCC3)C=C2C(C)(C)c2cc(N3CCCC3)ccc21.[I-]` (stereo not shown) [Compound 51, 1-(9,9-dimethyl-10-(1-((phenoxycarbonyl)oxy)ethyl)-7-(pyrrolidin-1-yl)anthracen-2 (9H)-ylidene)pyrrolidin-1-ium iodide] registered a decomposition in data set [1] (red light at 50% power, 30 s) greater than 70%. Further, in data set [2], the “ε × Φu, uncaging cross-section / quantum efficiency” value was 13 200 M^−1cm^−1; the “Φu, uncaging quantum yield” value is recorded as 18%; the “Φdeg, degradation quantum yield” value is recorded as 25%. Further, the dark stability entry in data set [4] is “reduced and poor”. Further, in data set [3], the “λem (fluorescence emission maximum)” value is 676 nm, the “λmax (absorption maximum)” value turned out to be 643 nm and the “ε (molar absorption coefficient)” value was 73 300 M^−1cm^−1.
